Values after ≈ are worked out from the molar mass of the structure shown. Values joined by “and” are separate entries in the source; they are usually repeats but may differ in a detail not shown here. Equal entries are not always repeated.
How the values were obtained:
Streptococcus pyogenes = assay: MIC by broth microdilution (CLSI); type: cell-based
MRSA USA300 [1] = assay: TEM analysis of cell morphology / division defects; type: cell-based, Staphylococcus aureus; conditions: 4 μg/mL (1/2× MIC), 3 h
Description: MRSA USA300 was cultured overnight, diluted (1:100) into 20 mL of Trypticase soy broth (TSB) medium, and incubated at 30°C with shaking until the optical density at 600 nm (OD600) reached 0.3. […] Bacterial cells treated with 4 μg/mL ceftaroline fosamil (1/2 of their respective MIC) served as a control group. Untreated S. aureus served as a negative control. Bacteria were collected and washed in PBS and resuspended in 4% (vol/vol) glutaraldehyde fixation overnight. The fixed samples were further processed, and morphological changes in S. aureus were observed by TEM (JSM-7900F; JEOL, Japan).

PBP1 = PBP1 (Staphylococcus aureus, UniProt Q53725); assay: PBP binding, bocillin competition fluorescence gel assay; conditions: dose-dependent
Sequence of PBP1 (Q53725 1-744): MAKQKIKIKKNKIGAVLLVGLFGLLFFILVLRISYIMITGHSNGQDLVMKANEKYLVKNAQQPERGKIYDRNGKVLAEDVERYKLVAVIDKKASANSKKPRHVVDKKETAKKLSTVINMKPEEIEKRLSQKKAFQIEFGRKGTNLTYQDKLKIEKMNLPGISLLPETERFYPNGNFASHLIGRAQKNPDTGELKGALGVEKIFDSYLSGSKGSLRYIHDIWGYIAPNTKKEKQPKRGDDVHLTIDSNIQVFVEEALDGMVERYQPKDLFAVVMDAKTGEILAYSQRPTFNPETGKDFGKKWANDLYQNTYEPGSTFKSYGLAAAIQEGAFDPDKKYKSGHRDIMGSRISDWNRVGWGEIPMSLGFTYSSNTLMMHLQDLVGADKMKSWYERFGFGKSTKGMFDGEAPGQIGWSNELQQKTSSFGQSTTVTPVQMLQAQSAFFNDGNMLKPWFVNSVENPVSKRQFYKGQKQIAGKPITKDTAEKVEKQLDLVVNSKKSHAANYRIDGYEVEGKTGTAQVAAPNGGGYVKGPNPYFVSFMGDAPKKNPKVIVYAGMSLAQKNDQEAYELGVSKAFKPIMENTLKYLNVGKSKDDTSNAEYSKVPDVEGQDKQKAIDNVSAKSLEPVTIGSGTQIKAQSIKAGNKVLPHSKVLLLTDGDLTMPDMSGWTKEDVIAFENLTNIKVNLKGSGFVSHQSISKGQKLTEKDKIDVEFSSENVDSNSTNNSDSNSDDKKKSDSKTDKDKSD
Description: (§1) Using the genome of S. aureus USA300 as a template, PCR was performed to amplify PBP1, PBP2, PBP3, PBP4, and PBP2a genes with primers designed according to Table 1. Then, the amplified fragments were treated with BamHI/XhoI and then inserted into the cloning site of the BamHI/XhoI-digested pET28a to yield pET28a-PBP1, pET28a-PBP2, pET28a-PBP3, pET28a-PBP4, and pET28a-PBP2a, respectively. The plasmid was transformed into E. coli BL21(DE3) and cultured in LB medium containing Kan resistance until the OD600 reached 0.6, and PBP expression was induced overnight at 16°C by adding 0.5 mM IPTG (isopropyl-β-D-thiogalactopyranoside). The bacteria were then lysed by sonication, the […] was collected, and the proteins were purified using a HIS-Select nickel affinity gel system (Beyotime, Shanghai, China).
(§2) PBP binding assays were performed as previously described ([30], [31]). Selective labeling of PBP from preincubated samples ([…] protein) with various concentrations of WYBQ-4 was performed for 15 min, and then 25 μM BOCILLIN FL (Invitrogen) was added, followed by an additional 10 min at 37°C. Proteins were separated by SDS-PAGE, and the PBPs were detected by a gel fluorescence imaging instrument (excitation, 488 nm; emission, 530 nm).

PBP2 = PBP2 (Staphylococcus aureus, UniProt Q9R744); assay: as above
Sequence of PBP2 (Q9R744 1-727): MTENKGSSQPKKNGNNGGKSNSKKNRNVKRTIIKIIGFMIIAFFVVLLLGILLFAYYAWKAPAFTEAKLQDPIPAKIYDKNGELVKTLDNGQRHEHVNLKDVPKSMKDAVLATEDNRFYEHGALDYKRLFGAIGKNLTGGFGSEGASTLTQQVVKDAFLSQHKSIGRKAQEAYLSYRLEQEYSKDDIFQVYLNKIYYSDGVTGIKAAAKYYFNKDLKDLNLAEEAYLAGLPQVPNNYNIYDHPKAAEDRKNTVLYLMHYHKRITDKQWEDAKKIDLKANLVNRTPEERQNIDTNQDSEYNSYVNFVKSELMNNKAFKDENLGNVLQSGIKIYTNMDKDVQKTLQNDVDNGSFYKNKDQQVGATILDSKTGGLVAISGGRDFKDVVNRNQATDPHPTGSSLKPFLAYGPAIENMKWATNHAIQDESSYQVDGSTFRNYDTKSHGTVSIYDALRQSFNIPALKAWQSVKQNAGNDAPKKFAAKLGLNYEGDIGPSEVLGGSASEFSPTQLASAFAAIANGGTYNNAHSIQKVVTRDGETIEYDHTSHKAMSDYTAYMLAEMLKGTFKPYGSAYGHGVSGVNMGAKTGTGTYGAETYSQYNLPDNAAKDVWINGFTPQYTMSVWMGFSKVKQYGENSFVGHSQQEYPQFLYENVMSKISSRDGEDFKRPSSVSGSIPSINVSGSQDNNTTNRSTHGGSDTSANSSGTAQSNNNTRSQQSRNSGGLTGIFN
Description: as §1, §2

PBP2a [2] = target: PBP2a (Staphylococcus aureus, UniProt Q53707); assay: as above
Sequence of PBP2a (Staphylococcus aureus, UniProt Q53707) (Q53707 entry or part of it): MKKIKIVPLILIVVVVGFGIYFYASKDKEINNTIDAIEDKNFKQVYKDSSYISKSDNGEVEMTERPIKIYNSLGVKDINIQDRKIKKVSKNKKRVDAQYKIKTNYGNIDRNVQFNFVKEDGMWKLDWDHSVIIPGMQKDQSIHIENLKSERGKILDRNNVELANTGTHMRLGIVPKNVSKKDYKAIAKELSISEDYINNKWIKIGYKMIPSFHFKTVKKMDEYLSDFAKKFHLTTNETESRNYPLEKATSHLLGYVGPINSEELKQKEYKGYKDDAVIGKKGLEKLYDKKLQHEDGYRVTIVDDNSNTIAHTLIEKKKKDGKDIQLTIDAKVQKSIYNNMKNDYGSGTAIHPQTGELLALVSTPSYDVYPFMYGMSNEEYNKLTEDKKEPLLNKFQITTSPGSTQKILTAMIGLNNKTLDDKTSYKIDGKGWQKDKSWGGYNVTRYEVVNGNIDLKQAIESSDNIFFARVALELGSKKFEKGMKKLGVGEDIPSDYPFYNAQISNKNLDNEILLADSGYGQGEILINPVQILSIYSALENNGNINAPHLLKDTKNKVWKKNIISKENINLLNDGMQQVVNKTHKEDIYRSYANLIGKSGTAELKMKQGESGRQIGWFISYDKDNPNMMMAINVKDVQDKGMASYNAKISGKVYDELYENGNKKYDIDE
Description: as §1, §2

PBP3 = PBP3 (Staphylococcus aureus, UniProt Q9XDB3); assay: as above; conditions: dose-dependent
Sequence of PBP3 (Q9XDB3 1-691): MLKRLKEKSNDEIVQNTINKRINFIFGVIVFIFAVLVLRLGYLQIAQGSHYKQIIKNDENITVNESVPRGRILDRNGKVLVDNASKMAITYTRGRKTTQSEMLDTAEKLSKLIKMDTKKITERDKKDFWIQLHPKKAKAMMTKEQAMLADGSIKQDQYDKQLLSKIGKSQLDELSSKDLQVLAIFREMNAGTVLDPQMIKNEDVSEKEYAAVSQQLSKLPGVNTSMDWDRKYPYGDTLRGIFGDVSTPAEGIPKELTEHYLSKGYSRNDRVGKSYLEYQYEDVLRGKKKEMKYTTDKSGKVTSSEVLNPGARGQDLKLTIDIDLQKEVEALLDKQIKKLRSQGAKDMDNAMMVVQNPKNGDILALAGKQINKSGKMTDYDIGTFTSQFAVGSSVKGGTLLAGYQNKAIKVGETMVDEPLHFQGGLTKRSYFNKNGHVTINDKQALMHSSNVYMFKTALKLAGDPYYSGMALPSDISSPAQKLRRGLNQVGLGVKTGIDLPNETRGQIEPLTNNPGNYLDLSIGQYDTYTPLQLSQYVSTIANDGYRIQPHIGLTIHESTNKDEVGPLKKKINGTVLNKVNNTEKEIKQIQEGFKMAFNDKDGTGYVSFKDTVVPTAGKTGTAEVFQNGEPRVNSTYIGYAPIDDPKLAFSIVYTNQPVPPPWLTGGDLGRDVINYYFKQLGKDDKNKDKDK
Description: as §1, §2

PBP4 = PBP4 (Staphylococcus aureus, UniProt P72355); assay: as above; conditions: dose-dependent
Sequence of PBP4 (P72355 25-431): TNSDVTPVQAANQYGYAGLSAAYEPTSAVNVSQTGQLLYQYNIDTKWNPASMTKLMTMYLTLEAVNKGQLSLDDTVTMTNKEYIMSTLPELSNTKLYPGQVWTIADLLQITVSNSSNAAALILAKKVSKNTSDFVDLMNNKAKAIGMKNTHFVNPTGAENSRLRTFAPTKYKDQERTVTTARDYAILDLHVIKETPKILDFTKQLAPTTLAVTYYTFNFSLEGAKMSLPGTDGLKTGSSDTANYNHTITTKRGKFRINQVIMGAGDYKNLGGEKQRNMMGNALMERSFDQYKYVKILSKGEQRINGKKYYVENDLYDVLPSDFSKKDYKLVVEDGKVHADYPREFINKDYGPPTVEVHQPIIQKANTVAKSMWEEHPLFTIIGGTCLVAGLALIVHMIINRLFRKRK
Description: as §1, §2

PBP2a [3] = target: T1, PBP2a (Staphylococcus aureus, UniProt P07944); assay: Dissociation equilibrium constant (Ks) by BOCILLIN FL method; type: binding, MRSA
T1 sequence (P07944 whole entry): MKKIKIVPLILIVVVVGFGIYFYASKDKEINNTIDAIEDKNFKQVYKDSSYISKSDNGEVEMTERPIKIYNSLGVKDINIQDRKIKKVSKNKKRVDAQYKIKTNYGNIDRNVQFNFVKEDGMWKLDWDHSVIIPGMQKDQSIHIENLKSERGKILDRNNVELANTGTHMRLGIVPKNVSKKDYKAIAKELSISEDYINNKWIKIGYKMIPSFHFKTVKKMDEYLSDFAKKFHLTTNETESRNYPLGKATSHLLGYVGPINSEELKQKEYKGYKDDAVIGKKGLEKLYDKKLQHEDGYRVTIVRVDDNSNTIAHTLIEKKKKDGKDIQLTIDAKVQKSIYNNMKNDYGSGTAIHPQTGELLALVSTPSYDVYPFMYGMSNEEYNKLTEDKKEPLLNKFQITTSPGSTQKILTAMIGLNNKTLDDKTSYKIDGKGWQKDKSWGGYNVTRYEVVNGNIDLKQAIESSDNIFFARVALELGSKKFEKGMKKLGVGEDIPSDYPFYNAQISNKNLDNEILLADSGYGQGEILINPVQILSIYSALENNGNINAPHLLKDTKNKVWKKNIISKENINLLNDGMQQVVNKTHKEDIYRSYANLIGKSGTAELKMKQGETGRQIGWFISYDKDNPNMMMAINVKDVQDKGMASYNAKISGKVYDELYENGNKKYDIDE
Description: (§3) Α = A + ∆ε E (k∗ ∕ (k∗ + k∗)(1 − exp (−(k∗ + k∗)t)) + k N ∆ε Ε t (2)
(§4) Where kn* is the pseudo-first-order rate constant for acylation by nitrocefin at the concentration (N0) employed (0.1 mM), ki* the pseudo-first-order rate constant for the reaction of PBP2a with the WYBQ-4, E0 the initial enzyme concentration (2.5 µM), and k0 the second-order rate constant of nonspecific nitrocefin hydrolysis. Second-order rate constants (ki) for acylation were calculated from a linear least-squares fit to a plot of the apparent first-order rate constants (ki*) against the concentration of WYBQ-4. All plots were linear for the concentrations of WYBQ-4 used.
(§5) Determination of dissociation equilibrium constants (Ks) of WYBQ-4 and PBP2a The dissociation equilibrium constant (Ks) of PBP2a with WYBQ-4 were determined by the BOCILLIN method (2), as previously described. […] Samples (30 μL) were loaded onto a 10% SDS-polyacrylamide gel, which was developed and then observed using a fluorescence imager to calculate the grayscale curve. […]
(§6) The deacylation rate constants for wild-type PBP2a were determined using BOCILLIN FL as a reporter molecule. […]
(§7) The mixture was diluted 5 times with buffer and incubated at room temperature for different time intervals. […] Grayscale analysis was performed by imageJ and the rate constant k3 for the deacylation reaction of WYBQ-4 with PBP2a was determined based on eqn (3): […]

PBP2a [4] = target: T1, PBP2a; assay: PBP2a deacylation rate, BOCILLIN FL as reporter; type: biochemical, MRSA; conditions: deacylation of PBP2a
Description: as §3, §4, §5, §6, §7

MRSA USA300 [5] = assay: Mouse lung infection model, survival; type: in vivo, mice; conditions: mouse pneumonia, USA300 2 × 10^8 CFU, 12-h intervals, within 72 h
Description: The animal experiments were performed using 6-week-old male C57BL/6J mice, and the mouse model of lung infection caused by MRSA USA300 was established as previously described ([43], [44]). For the survival rate, mice (10 per group) were infected with MRSA USA300 (2 × 10^8 CFU per mouse). After 2 h of infection, mice were given WYBQ-4 via subcutaneous injection and reinjected at 12-h intervals, whereas mice were treated with ceftaroline fosamil at the same doses and served as positive controls. Mice injected with only MRSA USA300 were used as a negative control. Survival of mice was recorded within 72 h, and survival rates were calculated.

C#CCO[C@@]1(NC(=O)CSc2cccc(C)c2)C(=O)N2C(C(=O)O)=C(CSc3nnnn3C)CSC21 (some centres unmarked) [WYBQ-4]
MIC (Streptococcus pyogenes): 1 mg/L (≈ 1.83 µM) | Asymmetry of bacterial division (number of cells) (MRSA USA300 [1]): 38 | Distortion of septa (number of cells) (MRSA USA300 [1]): 27 | Percentage of defective cells (asymmetry of bacterial division) (MRSA USA300 [1]): 40.9 b % | Percentage of defective cells (distortion of septa) (MRSA USA300 [1]): 29.0 a % | Percentage of defective cells (thin cell walls) (MRSA USA300 [1]): 63.4% and 63.4 c % | Thin cell walls (number of cells) (MRSA USA300 [1]): 59 | affinity for PBP1 (bocillin competition) (PBP1): had an affinity | concentration at which bocillin fluorescence disappeared completely (PBP2): 0.25 µg/mL | IC50 (PBP2a [2]): 3.66 µM | concentration that completely competed for the binding of bocillin (PBP2a [2]; PBP2a): 2 µg/mL | affinity for PBP3 (bocillin competition) (PBP3): had an affinity | affinity for PBP4 (bocillin competition) (PBP4): had an affinity | Kd (PBP2a [3]): 28 ± 1.24 µM | k3 (PBP2a [4]): 11 ± 1.32 s^–1 × 10^6 | survival rate (MRSA USA300 [5]; 37.5 mg/kg subcutaneous): 36.67% | survival rate (MRSA USA300 [5]; 75 mg/kg subcutaneous): 70.00%

— publication PMC9603521, “WYBQ-4: a New Bactericidal Agent against Methicillin-Resistant Staphylococcus aureus” (Microbiology Spectrum, 2022)
